Common to all, as to type: ADME, organism-based
A short description of series [1]: Oral bioavailability in Balb/c mouse at 1 mg/kg. Particulars: in vivo.
The nature of series [2]: Clearance in Balb/c mouse at 1 mg/kg, po and 0.1 mg/kg, iv. The following applies: in vivo.
The nature of series [3]: AUC in Balb/c mouse at 1 mg/kg, po. The following applies: in vivo.
Series [4] in a line: Plasma concentration in Balb/c mouse at 10 mg/kg to 100 mg/kg, po after 4 hrs.

One may read the bioavailability as dose-corrected exposure relative to a reference, in per cent. Lower therefore signals poor availability. For orientation: AUC means concentration integrated over time. Read a high AUC as high exposure.

The structures appear in SMILES notation.

Regarding `CC1(C)NC(=O)c2ccc(-n3c(=O)[nH]c4ncccc43)cc2N1Cc1ccccc1`, the bioavailability in series [1] was 12%. This molecule also showed a clearance in series [2] of 8.57 L/h/kg. The molecule further displayed an AUC in series [3] of 0.016 µg·h/mL.

`C[C@H](c1ccccc1)N1c2cc(-n3c(=O)[nH]c4ncccc43)ccc2C(=O)NC1(C)C`: the bioavailability in series [1] was found to be 28%. For the same molecule, the concentration at 4 h in series [4] was 2 µM. In series [2], this molecule showed a clearance of 1.64 L/h/kg. For the same molecule, the exposure (AUC) in series [3] was found to be 0.172 µg·h/mL.

In turn, `C[C@@H](c1ccccc1)N1c2cc(-n3c(=O)[nH]c4ncccc43)ccc2C(=O)NC1(C)C` registered a bioavailability in series [1] of 7%. In series [2], this molecule gave a clearance of 6.39 L/h/kg. In series [3], this molecule gave an AUC of 0.011 µg·h/mL.

Source of the values: ChEMBL document CHEMBL3797131, “Discovery and optimization of 1,7-disubstituted-2,2-dimethyl-2,3-dihydroquinazolin-4(1H)-ones as potent and selective PKCθ inhibitors” (Bioorg Med Chem, 2016).
